Experimental data as given in ChEMBL document CHEMBL3991601, “The target landscape of clinical kinase drugs” (Science, 2017).
Active and inactive are the calls of the source. Cut-off read from the data, not from the text of the source, for most assays here: actives have a measured Kd and inactives only a lower limit.

Tests used:
[1] = molecular target: Mitogen-activated protein kinase kinase kinase kinase 1 (Homo sapiens, UniProt Q92918)
[2] = molecular target: Epithelial discoidin domain-containing receptor 1 (Homo sapiens, UniProt Q08345)
Sequence of Epithelial discoidin domain-containing receptor 1 (Q08345 whole entry, the tested form may be a part): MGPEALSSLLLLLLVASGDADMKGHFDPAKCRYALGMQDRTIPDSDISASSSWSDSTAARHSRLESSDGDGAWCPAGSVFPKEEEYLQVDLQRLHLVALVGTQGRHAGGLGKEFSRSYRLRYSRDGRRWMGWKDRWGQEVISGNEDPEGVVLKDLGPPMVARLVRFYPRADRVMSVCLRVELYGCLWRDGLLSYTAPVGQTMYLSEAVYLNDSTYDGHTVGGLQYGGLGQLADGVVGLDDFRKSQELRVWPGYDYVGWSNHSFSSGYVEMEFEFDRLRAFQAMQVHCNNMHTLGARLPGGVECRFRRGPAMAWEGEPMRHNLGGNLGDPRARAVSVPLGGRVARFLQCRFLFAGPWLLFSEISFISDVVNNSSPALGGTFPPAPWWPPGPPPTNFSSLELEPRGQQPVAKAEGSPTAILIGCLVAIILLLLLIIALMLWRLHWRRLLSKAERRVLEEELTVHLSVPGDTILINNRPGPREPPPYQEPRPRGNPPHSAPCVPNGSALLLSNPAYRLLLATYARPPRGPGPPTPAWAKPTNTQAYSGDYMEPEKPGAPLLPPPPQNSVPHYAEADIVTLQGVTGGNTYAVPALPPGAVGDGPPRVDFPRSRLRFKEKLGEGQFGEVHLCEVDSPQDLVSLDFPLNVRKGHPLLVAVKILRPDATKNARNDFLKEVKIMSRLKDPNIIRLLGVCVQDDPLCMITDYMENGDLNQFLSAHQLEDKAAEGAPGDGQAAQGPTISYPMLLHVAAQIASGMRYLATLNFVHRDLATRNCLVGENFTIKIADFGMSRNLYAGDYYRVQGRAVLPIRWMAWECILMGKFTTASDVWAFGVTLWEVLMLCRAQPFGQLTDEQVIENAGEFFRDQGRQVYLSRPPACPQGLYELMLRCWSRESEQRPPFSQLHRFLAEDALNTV

[3] = molecular target: Chromodomain-helicase-DNA-binding protein 4 (Homo sapiens, UniProt Q14839)
Sequence of Chromodomain-helicase-DNA-binding protein 4 (Q14839 whole entry): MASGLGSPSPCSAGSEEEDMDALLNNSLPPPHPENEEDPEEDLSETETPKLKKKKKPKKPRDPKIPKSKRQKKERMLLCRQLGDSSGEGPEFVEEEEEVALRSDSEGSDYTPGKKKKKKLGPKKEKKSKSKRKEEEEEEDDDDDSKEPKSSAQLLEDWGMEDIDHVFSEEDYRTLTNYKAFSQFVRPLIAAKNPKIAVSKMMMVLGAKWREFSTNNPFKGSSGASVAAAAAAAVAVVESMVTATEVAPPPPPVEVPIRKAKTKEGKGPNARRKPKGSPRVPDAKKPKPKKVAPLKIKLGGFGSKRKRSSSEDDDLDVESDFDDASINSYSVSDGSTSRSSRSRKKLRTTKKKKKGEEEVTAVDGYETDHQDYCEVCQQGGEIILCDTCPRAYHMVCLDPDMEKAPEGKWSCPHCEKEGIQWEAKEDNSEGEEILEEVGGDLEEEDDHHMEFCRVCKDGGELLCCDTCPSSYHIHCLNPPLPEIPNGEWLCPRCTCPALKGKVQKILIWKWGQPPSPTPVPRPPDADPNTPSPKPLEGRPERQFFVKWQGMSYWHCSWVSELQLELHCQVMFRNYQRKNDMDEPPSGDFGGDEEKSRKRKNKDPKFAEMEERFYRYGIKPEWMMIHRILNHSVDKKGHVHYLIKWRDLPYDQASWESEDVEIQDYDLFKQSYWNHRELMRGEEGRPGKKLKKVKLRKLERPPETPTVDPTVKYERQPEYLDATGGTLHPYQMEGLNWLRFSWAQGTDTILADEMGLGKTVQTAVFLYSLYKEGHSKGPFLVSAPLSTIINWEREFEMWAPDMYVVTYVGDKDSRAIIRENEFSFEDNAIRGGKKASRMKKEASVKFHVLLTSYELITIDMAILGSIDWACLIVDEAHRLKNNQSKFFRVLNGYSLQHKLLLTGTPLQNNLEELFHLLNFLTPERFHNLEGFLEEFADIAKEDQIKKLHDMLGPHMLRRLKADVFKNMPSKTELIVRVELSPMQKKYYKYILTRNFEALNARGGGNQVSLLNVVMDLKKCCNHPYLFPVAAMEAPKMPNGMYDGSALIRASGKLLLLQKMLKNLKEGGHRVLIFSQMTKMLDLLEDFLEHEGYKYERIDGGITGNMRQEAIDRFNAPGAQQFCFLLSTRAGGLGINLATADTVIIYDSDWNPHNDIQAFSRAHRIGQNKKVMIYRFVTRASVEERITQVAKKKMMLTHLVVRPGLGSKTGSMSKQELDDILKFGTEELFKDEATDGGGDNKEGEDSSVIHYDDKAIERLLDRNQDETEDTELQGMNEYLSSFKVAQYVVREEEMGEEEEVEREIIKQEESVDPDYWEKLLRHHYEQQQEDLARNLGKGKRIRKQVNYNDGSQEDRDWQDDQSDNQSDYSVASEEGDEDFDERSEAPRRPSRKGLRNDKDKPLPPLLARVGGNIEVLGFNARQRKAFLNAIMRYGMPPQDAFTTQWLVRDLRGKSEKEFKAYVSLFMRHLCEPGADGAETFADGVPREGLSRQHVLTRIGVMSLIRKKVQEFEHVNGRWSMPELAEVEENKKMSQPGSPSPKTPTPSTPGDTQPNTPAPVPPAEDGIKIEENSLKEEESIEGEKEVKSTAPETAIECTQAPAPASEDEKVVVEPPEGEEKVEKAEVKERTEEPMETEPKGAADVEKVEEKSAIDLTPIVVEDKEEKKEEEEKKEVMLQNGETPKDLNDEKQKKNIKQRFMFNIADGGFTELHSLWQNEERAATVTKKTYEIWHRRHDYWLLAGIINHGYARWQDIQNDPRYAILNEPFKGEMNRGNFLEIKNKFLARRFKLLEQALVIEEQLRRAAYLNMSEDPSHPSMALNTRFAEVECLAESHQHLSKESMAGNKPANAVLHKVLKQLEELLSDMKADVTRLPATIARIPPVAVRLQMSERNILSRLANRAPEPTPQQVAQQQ

[4] = molecular target: Ribosomal protein S6 kinase alpha-3 (Homo sapiens, UniProt P51812)
[5] = molecular target: T1, Peroxisomal acyl-coenzyme A oxidase 1 (Homo sapiens, UniProt Q15067)
T1 sequence (Q15067 whole entry): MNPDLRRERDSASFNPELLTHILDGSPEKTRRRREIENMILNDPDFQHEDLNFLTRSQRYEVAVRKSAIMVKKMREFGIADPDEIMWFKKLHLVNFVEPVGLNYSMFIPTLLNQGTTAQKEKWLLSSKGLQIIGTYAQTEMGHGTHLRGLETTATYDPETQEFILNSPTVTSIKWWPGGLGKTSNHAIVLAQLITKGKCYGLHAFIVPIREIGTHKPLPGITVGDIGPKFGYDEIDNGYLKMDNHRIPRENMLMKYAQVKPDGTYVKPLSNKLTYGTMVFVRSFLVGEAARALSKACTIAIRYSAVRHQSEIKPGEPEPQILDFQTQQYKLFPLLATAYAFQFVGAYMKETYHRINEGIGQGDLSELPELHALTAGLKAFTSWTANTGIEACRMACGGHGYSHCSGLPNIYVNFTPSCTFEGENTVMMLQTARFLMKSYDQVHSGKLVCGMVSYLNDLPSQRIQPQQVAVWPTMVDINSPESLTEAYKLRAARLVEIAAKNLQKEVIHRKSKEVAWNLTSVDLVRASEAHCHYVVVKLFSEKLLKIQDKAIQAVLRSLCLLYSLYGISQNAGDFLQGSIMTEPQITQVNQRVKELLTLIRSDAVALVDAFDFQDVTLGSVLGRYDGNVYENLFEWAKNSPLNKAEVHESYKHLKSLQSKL

[6] = molecular target: Mitogen-activated protein kinase kinase kinase 1 (Homo sapiens, UniProt Q13233)
[7] = molecular target: Casein kinase I isoform alpha (Homo sapiens, UniProt P48729)
Sequence of Casein kinase I isoform alpha (P48729 whole entry, canonical isoform): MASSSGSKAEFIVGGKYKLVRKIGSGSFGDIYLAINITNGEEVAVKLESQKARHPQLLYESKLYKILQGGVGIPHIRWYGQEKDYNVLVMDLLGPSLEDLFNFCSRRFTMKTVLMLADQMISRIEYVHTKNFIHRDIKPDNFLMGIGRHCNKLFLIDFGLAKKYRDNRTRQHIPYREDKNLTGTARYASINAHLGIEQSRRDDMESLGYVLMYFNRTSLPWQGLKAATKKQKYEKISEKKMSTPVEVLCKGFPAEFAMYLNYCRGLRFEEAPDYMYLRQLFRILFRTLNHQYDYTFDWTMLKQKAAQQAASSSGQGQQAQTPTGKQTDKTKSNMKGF

Wee1-like protein kinase = Wee1-like protein kinase (Homo sapiens, UniProt P30291)
Sequence of Wee1-like protein kinase (P30291 whole entry): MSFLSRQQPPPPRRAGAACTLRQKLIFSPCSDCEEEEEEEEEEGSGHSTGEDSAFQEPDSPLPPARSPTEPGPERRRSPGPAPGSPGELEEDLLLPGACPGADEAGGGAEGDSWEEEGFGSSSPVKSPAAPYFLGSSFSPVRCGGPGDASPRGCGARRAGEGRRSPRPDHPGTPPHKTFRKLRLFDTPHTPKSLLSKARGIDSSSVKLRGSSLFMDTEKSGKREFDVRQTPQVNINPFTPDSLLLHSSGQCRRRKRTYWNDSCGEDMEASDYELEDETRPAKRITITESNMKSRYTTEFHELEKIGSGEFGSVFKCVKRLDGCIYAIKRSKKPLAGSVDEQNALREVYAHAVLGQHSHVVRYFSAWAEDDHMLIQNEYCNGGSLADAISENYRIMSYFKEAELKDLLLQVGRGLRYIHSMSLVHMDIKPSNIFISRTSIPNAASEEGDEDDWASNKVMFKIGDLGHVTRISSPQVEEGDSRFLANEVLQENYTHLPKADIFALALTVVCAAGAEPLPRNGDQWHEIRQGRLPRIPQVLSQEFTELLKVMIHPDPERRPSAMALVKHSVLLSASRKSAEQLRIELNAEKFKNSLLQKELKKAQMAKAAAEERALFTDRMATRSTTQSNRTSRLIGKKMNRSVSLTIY

[8] = molecular target: T2, Bone morphogenetic protein receptor type-2 (Homo sapiens, UniProt Q13873)
T2 sequence (Q13873 whole entry): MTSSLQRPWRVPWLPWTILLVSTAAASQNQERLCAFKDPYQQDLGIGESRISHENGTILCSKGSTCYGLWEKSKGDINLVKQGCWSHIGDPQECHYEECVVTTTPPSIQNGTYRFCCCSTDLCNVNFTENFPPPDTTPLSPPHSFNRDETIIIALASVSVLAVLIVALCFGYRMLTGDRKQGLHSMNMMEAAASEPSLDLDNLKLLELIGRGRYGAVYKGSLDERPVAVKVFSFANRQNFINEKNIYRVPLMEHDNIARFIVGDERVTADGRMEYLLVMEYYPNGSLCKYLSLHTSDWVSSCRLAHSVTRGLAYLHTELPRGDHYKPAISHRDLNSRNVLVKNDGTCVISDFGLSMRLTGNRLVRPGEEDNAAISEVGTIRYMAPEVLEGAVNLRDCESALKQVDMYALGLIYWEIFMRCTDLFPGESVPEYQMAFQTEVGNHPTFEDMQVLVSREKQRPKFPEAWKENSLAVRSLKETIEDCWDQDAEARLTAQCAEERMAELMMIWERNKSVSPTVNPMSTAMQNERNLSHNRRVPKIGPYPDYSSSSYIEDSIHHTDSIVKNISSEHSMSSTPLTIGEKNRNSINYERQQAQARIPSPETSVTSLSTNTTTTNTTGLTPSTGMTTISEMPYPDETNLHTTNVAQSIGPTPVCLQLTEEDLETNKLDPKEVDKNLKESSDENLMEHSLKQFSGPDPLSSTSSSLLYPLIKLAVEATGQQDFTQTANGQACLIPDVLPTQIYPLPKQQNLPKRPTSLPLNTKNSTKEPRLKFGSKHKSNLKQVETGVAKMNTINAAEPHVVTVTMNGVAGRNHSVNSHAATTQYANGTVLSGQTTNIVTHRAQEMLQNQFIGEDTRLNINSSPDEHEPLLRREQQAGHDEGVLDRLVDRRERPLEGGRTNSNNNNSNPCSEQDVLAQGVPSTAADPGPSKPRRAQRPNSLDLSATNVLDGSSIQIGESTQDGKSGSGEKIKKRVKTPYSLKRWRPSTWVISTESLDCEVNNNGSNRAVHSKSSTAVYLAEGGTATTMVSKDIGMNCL

[9] = molecular target: DnaJ homolog subfamily A member 1 (Homo sapiens, UniProt P31689)
Sequence of DnaJ homolog subfamily A member 1 (P31689 whole entry): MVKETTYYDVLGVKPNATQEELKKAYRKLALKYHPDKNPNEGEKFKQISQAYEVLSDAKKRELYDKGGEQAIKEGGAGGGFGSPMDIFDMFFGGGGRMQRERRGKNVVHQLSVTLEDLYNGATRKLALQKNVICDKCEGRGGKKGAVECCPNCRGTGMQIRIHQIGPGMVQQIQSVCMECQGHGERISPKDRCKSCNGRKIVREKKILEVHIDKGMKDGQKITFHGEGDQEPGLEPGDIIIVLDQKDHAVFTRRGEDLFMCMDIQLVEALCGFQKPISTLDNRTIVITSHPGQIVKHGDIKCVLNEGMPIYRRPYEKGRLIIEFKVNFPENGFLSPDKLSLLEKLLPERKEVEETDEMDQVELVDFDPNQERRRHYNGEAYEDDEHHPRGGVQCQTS

[10] = molecular target: T3, Adenine phosphoribosyltransferase (Homo sapiens, UniProt P07741)
T3 sequence (P07741 whole entry): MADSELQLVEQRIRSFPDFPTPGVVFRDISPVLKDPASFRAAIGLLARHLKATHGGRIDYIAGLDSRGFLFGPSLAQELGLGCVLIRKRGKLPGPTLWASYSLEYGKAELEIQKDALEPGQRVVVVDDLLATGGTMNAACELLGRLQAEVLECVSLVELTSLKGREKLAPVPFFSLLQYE
Note: in the data inactive means no Kd found up to 30 µM.

Sequence of Mitogen-activated protein kinase kinase kinase kinase 1 (Q92918 whole entry, the tested form may be a part): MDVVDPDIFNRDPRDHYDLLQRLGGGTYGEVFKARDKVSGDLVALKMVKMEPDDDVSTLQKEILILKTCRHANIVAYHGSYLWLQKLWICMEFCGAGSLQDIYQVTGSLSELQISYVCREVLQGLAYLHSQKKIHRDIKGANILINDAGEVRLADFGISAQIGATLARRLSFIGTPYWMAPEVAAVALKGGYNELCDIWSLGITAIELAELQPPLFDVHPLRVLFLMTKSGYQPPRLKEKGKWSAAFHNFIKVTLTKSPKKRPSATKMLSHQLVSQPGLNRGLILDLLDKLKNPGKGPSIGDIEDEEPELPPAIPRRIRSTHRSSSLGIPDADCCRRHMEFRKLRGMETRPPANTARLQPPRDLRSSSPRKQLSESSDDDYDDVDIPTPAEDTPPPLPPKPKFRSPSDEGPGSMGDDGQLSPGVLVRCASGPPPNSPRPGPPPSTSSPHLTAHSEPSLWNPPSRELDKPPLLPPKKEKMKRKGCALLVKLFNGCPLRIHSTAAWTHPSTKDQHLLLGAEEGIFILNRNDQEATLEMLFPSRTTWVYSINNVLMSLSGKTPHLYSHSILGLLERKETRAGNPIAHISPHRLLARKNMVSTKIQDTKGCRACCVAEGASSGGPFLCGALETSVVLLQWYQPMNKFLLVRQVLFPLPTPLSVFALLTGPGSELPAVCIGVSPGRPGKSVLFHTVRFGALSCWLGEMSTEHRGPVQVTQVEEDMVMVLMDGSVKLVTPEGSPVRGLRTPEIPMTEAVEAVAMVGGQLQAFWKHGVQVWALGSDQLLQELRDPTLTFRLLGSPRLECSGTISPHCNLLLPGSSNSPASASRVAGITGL

SMILES | Kd [1] | Kd [2] | Kd [3] | Kd [4] | Kd [5] | Kd [6] | Kd [7] | Kd (Wee1-like protein kinase) | Kd [8] | Kd [9] | Kd [10]
COc1cc2c(Nc3ccc(Cl)c(Cl)c3F)ncnc2cc1OC[C@@H]1C[C@@H]2CN(C)C[C@@H]2C1 [TESEVATINIB] | > 30 µM (inactive) | 0.073 µM (active) | > 30 µM (inactive) | > 30 µM (inactive) | > 30 µM (inactive) | 1.74 µM (active) | > 30 µM (inactive) | > 30 µM (inactive) | > 30 µM (inactive) | > 30 µM (inactive) | > 30 µM (inactive)
CO[C@H]1C[C@@H]2CC[C@@H](C)[C@@](O)(O2)C(=O)C(=O)N2CCCC[C@H]2C(=O)O[C@H]([C@H](C)C[C@@H]2CC[C@@H](OC(=O)C(C)(CO)CO)[C@H](OC)C2)CC(=O)[C@H](C)/C=C(\C)[C@@H](O)[C@@H](OC)C(=O)[C@H](C)C[C@H](C)/C=C/C=C/C=C/1C [TEMSIROLIMUS] | > 30 µM (inactive) | > 30 µM (inactive) | > 30 µM (inactive) | > 30 µM (inactive) | > 30 µM (inactive) | > 30 µM (inactive) | > 30 µM (inactive) | > 30 µM (inactive) | > 30 µM (inactive) | > 30 µM (inactive) | > 30 µM (inactive)
Cn1cnc2c(F)c(Nc3ccc(Br)cc3F)c(C(=O)NOCCO)cc21 [BINIMETINIB] | > 30 µM (inactive) | > 30 µM (inactive) | > 30 µM (inactive) | > 30 µM (inactive) | > 30 µM (inactive) | > 30 µM (inactive) | > 30 µM (inactive) | > 30 µM (inactive) | > 30 µM (inactive) | > 30 µM (inactive) | > 30 µM (inactive)
COc1c(OCCCN2CCOCC2)ccc2c1N=C(NC(=O)c1cnc(N)nc1)N1CCN=C21 [COPANLISIB] | > 30 µM (inactive) | > 30 µM (inactive) | > 30 µM (inactive) | > 30 µM (inactive) | > 30 µM (inactive) | > 30 µM (inactive) | > 30 µM (inactive) | > 30 µM (inactive) | > 30 µM (inactive) | > 30 µM (inactive) | > 30 µM (inactive)
O=c1[nH]ccc2cc(OC3CCNCC3)ccc12 [SAR-407899 FREE BASE] | > 30 µM (inactive) | > 30 µM (inactive) | > 30 µM (inactive) | > 30 µM (inactive) | > 30 µM (inactive) | > 30 µM (inactive) | > 30 µM (inactive) | > 30 µM (inactive) | > 30 µM (inactive) | > 30 µM (inactive) | > 30 µM (inactive)
CNC(=O)c1cccc2cc(Oc3ccnc4cc(OCC5(N)CC5)c(OC)cc34)ccc12 [LUCITANIB] | > 30 µM (inactive) | 0.014 µM (active) | > 30 µM (inactive) | > 30 µM (inactive) | > 30 µM (inactive) | > 30 µM (inactive) | > 30 µM (inactive) | > 30 µM (inactive) | > 30 µM (inactive) | > 30 µM (inactive) | > 30 µM (inactive)
Cn1cc(-c2cnn3c(N)c(Br)c([C@@H]4CCCNC4)nc23)cn1 [SCH-900776] | > 30 µM (inactive) | > 30 µM (inactive) | > 30 µM (inactive) | > 30 µM (inactive) | > 30 µM (inactive) | 1.25 µM | > 30 µM (inactive) | > 30 µM (inactive) | > 30 µM (inactive) | > 30 µM (inactive) | > 30 µM (inactive)
CCn1c(C(=O)N(C2CC2)C2CC2)cc2c3c(ncn3C)c(Nc3cc(C)n(C)n3)nc21 [BMS-911543] | > 30 µM (inactive) | > 30 µM (inactive) | > 30 µM (inactive) | > 30 µM (inactive) | > 30 µM (inactive) | > 30 µM (inactive) | > 30 µM (inactive) | > 30 µM (inactive) | > 30 µM (inactive) | > 30 µM (inactive) | > 30 µM (inactive)
